Source: patent US12290520B2, “Methods of use of emulsion formulations of aprepitant” (Heron Therapeutics, Inc., priority 2014, dated 2025)

Assay: Pharmacokinetics of aprepitant emulsion vs fosaprepitant solution, intravenous
Type: in vivo, male Sprague-Dawley rats
Settings: rat, equivalent to 14 mg/kg aprepitant
Method: The pharmacokinetics of an aprepitant emulsion prepared according to Example 1 was determined. Two groups of six male Sprague-Dawley rats each were injected intravenously with, respectively, fosaprepitant in solution or aprepitant emulsion prepared according to Example 1. All drugs were administered at an effective concentration equivalent to 14 mg/kg aprepitant. Blood from all rats was collected at the appropriate time intervals and processed to plasma by centrifugation. Plasma samples were analyzed by LC-MS/MS for aprepitant and fosaprepitant, as appropriate. A plasma concentration versus time curve of aprepitant for the emulsion described in Example 1 and for fosaprepitant is presented in FIG. 2 (fosaprepitant in solution, ●; aprepitant emulsion, ▴). The curves indicate the initial aprepitant level reached immediately after injection of the aprepitant emulsion was almost 3 times higher than the initial aprepitant level reached immediately after injection of the fosaprepitant solution.

- Plasma levels of aprepitant by the 3-hour time point, emulsion vs fosaprepitant solution: essentially the same
SMILES: C[C@@H](O[C@H]1OCCN(Cc2nc(O)n(P(=O)(O)O)n2)[C@H]1c1ccc(F)cc1)c1cc(C(F)(F)F)cc(C(F)(F)F)c1 [fosaprepitant]
